The source of these data is US12331029B2, “Orexin 1 receptor antagonists” (NXERA PHARMA UK LIMITED, priority 2018, dated 2025).

In assay [1] the target is T1, Human OX2 receptor (Homo sapiens, UniProt O43614).
T1 sequence (O43614 1-444): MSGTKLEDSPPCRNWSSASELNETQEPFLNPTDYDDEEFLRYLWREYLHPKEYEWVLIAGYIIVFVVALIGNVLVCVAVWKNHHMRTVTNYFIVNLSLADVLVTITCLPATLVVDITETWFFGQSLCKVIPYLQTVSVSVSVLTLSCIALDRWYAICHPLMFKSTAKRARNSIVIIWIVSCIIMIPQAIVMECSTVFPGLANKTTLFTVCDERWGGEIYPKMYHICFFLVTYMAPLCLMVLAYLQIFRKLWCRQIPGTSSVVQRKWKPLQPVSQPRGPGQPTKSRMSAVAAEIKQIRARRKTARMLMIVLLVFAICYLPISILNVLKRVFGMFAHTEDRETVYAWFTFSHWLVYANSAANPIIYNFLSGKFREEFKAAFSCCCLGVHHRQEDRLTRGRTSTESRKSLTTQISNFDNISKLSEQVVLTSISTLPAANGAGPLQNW
As to the kind of experiment: [3H]-radioligand binding assay, human OX2 receptor membranes.
Experimental: (§2) Human OX1 or OX2 receptor were cloned into Invitrogen's (ThermoFisher Scientific, UK) Bac-to-Bac Baculovirus Expression System. P0 baculovirus was generated by transfecting SF9 cells with bacmid DNA using Cellfectin® II transfection reagent (ThermoFisher Scientific, UK, Catalog number 10362-100). Following P0 generation P1 virus was then generated ready for large scale infection and membrane preparation. SF21 cells were grown in expression medium ESF921 (Expression Systems, USA, catalog number 96-001-01) supplemented with 10% heat-inactivated FBS and 1% Pen/Strep and were infected at a cell density of 2.5×10^6 cells/mL and a multiplicity of infection of 1.0 for both human OX1R and OX2R. Incubation was carried out at over 48 h in a shaking incubator set at 27° C. The cell culture was then centrifuged at 2,500 rcf for 10 min at 4° C. The pellets were resuspended in cold PBS supplemented with Roche's Complete EDTA-free protease inhibitor cocktail tablets (Roche Applied Sciences, catalog number 05056489001), 1 mM PMSF and 1 mM EDTA. The resuspended cell paste was then centrifuged at 3,273 rcf for 12 min at 4° C. The supernatant was discarded and the pellet frozen at −80° C. The cell pellet from a 4 L culture was resuspended in buffer containing 50 mM HEPES pH 7.5, 150 mM NaCl, 8 Roche EDTA-Free protease inhibitor cocktail tablets and 1 mM PMSF. The suspension was left stirring at rt for 1 h and then homogenised for 90 s at 9,500 rpm using a VDI 25 (VWR, USA) homogeniser. The cells were then lysed using a Microfluidiser processor M-110L Pneumatic (Microfluidics, USA) at 60 PSI and membranes collected by ultracentrifugation at 204.7 k×g for 1 h. The supernatant was discarded and the pellet was resuspended and homogenised in 90 s at 9,500 rpm in 50 mL (25 mL for each 2 L culture) of buffer containing 50 mM Hepes pH 7.5, 150 mM NaCl, 3 Roche EDTA-free protease inhibitor cocktail tablets and 1 mM PMSF. The resulting membranes were then stored at −80° C.
(§3) [^3H]-radioligand binding assay. After thawing, membrane homogenates were re-suspended in the binding buffer (8.5 mM HEPES, pH 7.4, 1.3 mM CaCl2, 1.2 mM MgSO4, 118 mM NaCl, 4.7 mM KCl, 4 mM NaHCO3, 1.2 mM KH2PO4, 11 mM glucose) to a final assay concentration of 6.4 μg (OX1) or 1.4 μg (OX2) protein per well. Saturation isotherms were determined by the addition of various concentrations (0-30 nM) of [^3H]-4-(2,6-difluoro-4-methoxybenzyl)-2-(5,6-dimethoxypyridin-3-yl)-2H-1,2,4-benzothiadiazin-3(4H)-one 1,1-dioxide (Christopher et al, MedChemComm., 2015, 6, 947-955) in a total reaction volume of 250 μL for 90 min at rt. At the end of the incubation, membranes were filtered onto a 96-well GF/B filter pre-incubated with 0.5% polyethylenimine, with a Tomtec cell harvester and washed 5 times with 0.5 mL distilled water. Non-specific binding (NSB) was measured in the presence of 3.33 μM [4-(5-chloro-1,3-benzoxazol-2-yl)-7-methyl-1,4-diazepan-1-yl][5-methyl-2-(2H-1,2,3-triazol-2-yl)phenyl]methanone (Wertz et al, Angew. Chem. Int. Ed., 2011, 50, 11511-11515). Radioactivity on the filter was counted (1 min) on a Microbeta radiometric plate counter (Perkin Elmer) after addition of 50 μL of scintillation fluid (LabLogic: Part #SG-BXX-14). […] IC50 values were derived from the inhibition curve and the equilibrium dissociation constant (Ki) values were calculated using the Cheng-Prusoff equation.

The target of assay [2] is T2, Human OX1 receptor (Homo sapiens, UniProt O43613).
T2 sequence (O43613 1-425): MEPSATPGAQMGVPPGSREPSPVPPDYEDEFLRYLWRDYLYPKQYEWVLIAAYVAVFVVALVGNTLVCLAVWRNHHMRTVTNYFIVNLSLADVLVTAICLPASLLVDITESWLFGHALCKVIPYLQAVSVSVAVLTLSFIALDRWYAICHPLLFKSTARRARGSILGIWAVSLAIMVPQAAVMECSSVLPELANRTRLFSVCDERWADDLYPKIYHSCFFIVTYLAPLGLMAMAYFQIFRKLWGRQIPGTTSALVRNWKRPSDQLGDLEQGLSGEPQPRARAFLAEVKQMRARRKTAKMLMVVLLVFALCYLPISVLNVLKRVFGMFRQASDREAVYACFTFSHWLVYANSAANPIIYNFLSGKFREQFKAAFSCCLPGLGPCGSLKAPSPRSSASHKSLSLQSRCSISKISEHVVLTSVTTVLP
Nature of the assay: [3H]-radioligand binding assay, human OX1 receptor membranes.
Experimental: as §2, §3

For assay [3], the target named is T1, Human OX2 receptor. As to the kind of experiment: IPone accumulation assay, CHO cells expressing human OX2 receptor. The format is cell-based. The settings on record: antagonism of orexin A (EC80) induced inositol phosphate turnover, read-out: fpKb average OX2. The procedure: (§1) Stable cell lines for the human OX1R and OX2R receptors were generated through the transfection of CHO cells using the transfection reagent Genejuice (Novagen number 70967) and cDNA coding for either the human OX1R or OX2R. Cells were cultured in Sigma Nutrient Mixture F-12 Ham media (catalog number N6658) supplemented with 10% heat-inactivated FBS. Forty-eight hours after transfection, cells were harvested and placed under geneticin selection by culturing in Sigma Nutrient Mixture F-12 Ham media supplemented with 10% heat-inactivated FBS and geneticin (ThermoFisher Catalog number: 10131035). Selection of the final stable clone for each receptor was made on the basis of receptor expression, assay signal to noise and robustness though increasing passage. Selected clones for the human OX1R and OX2R were then frozen down into liquid nitrogen using Cell Freezing Medium-DMSO (Sigma-Aldrich catalog number: C6164).
IPone accumulation assay. A CHO cell line stably expressing either human OX1 or OX2 receptor was used with the IPone HTRF assay kit (CisBio: Part #62IPAPEJ) to measure receptor activation. The assay was optimised to measure the ability (potency; fpKb) of antagonists to reduce agonist (orexin A)-induced inositol phosphate turnover. Briefly, cells were plated onto half area 96-well white walled plates at a density of 12,500 cells/well. Sixteen hours post-plating cell growth media was replaced with antagonist concentration-response curve diluted in stimulation buffer (supplied with the kit). […] After 30 min stimulation in a humidified incubator (37° C.) the assay was terminated by the addition of detection mixture as per manufacturer's instructions. The concentration of compound which reduced orexin-A stimulated turnover of inositol phosphates by 50% (IC50) was calculated by fitting to a four parameter sigmoidal dose response curve. The IC50 values were converted to fpKB values using the orexin A pEC50 value estimated on each plate as well as the challenge concentration interpolated from the orexin A control curve.

Assay [4] deals with T2, Human OX1 receptor. As to the kind of experiment: IPone accumulation assay, CHO cells expressing human OX1 receptor. The format is cell-based. The settings on record: antagonism of orexin A (EC80) induced inositol phosphate turnover, read-out: fpKb average OX1 (converted). On the procedure:
as §1
IPone accumulation assay. A CHO cell line stably expressing either human OX1 or OX2 receptor was used with the IPone HTRF assay kit (CisBio: Part #62IPAPEJ) to measure receptor activation. The assay was optimised to measure the ability (potency; fpKb) of antagonists to reduce agonist (orexin A)-induced inositol phosphate turnover. Briefly, cells were plated onto half area 96-well white walled plates at a density of 12,500 cells/well. Sixteen hours post-plating cell growth media was replaced with antagonist concentration-response curve diluted in stimulation buffer (supplied with the kit). Cells were incubated in a humidified incubator (37° C.) for 30 min before an EC80 challenge concentration (˜20 nM (OX1) and 40 nM (OX2)) of orexin A (Tocris catalogue number 1455). After 30 min stimulation in a humidified incubator (37° C.) the assay was terminated by the addition of detection mixture as per manufacturer's instructions. The concentration of compound which reduced orexin-A stimulated turnover of inositol phosphates by 50% (IC50) was calculated by fitting to a four parameter sigmoidal dose response curve. The IC50 values were converted to fpKB values using the orexin A pEC50 value estimated on each plate as well as the challenge concentration interpolated from the orexin A control curve.

As a reminder, the Ki is a dissociation constant, usually derived from enzyme kinetics or from competition with a known ligand. A higher Ki goes with weaker binding. `O=C(N[C@H]1CCC[C@@H]1COc1ccc(F)cc1)c1c(OC(F)F)cccc1-n1nccn1` [Example 8, 2-(difluoromethoxy)-N-[(1S,2S)-2-[(4-fluorophenoxy)methyl]cyclopentyl]-6-(triazol-2-yl)benzamide]: the Ki at Human OX2 receptor [1] was 631 nM; on Human OX1 receptor [2], 6.31 nM. For the same compound, the Kb at Human OX2 receptor [3] was over 398 nM; on Human OX1 receptor [4] it was 79.4 nM.
